Experimental findings from PMC8658794, “Design, Synthesis, and Biological Evaluation of HDAC Degraders with CRBN E3 Ligase Ligands” (Molecules, 2021) are described below.

Assay [1] concerns the target T1, HDAC1 (Homo sapiens, UniProt Q13547). Kind of assay: In vitro HDAC inhibition assay (fluorogenic substrate), HDAC1. The format is biochemical. On the set-up: All three full-length rhHDACs were expressed in insect High5 cells using a baculoviral expression system; His6; GST; made in house; host or cells: insect High5 cells (baculovirus). The conditions noted are these: recombinant human HDAC1; mean ± SD of three independent determinations. As for the experimental part:
(§1) All three full-length rhHDACs were expressed in insect High5 cells using a baculoviral expression system, and all the His6-tagged and GST-fusion proteins were purified using Ni-NTA (QIAGEN). […] In brief, the HDAC assay mixture contained an HDAC substrate (5–50 μM, 5 μl), rhHDAC isoforms (20–200 nM) and an inhibitor (1 μl). The positive controls contained all the above components except the inhibitor. The negative controls contained neither an enzyme nor an inhibitor. The HDAC6 assay components were incubated at room temperature for 3 h, and HDAC 1 and 3 were incubated for 24 h. […] The plates were incubated for 30 min at room temperature to allow the fluorescence signal to develop.

The subject of a further assay is MM.1S cell line. The experiment in a line: In vitro anti-proliferative activity, MTS assay. The format is cell-based. The conditions noted are these: for IC50: Homo sapiens, MM1.S. The protocol: The cells were seeded in 96 well plates at a proper density in growth media. After 24 h, a range of concentrations of the test compounds was added and the plates were incubated at 37 °C for 72 h. The cell proliferation was determined by the MTS assay. After 3 h, the absorbance was collected using SpectraMAX 340. The IC50 values were calculated by fitting a concentration–response curve using a SoftMax pro-based four-parameter method.

Assay [2] concerns the target T2, HDAC6 (Homo sapiens, UniProt Q9UBN7).
T2 sequence (Q9UBN7 1-1215): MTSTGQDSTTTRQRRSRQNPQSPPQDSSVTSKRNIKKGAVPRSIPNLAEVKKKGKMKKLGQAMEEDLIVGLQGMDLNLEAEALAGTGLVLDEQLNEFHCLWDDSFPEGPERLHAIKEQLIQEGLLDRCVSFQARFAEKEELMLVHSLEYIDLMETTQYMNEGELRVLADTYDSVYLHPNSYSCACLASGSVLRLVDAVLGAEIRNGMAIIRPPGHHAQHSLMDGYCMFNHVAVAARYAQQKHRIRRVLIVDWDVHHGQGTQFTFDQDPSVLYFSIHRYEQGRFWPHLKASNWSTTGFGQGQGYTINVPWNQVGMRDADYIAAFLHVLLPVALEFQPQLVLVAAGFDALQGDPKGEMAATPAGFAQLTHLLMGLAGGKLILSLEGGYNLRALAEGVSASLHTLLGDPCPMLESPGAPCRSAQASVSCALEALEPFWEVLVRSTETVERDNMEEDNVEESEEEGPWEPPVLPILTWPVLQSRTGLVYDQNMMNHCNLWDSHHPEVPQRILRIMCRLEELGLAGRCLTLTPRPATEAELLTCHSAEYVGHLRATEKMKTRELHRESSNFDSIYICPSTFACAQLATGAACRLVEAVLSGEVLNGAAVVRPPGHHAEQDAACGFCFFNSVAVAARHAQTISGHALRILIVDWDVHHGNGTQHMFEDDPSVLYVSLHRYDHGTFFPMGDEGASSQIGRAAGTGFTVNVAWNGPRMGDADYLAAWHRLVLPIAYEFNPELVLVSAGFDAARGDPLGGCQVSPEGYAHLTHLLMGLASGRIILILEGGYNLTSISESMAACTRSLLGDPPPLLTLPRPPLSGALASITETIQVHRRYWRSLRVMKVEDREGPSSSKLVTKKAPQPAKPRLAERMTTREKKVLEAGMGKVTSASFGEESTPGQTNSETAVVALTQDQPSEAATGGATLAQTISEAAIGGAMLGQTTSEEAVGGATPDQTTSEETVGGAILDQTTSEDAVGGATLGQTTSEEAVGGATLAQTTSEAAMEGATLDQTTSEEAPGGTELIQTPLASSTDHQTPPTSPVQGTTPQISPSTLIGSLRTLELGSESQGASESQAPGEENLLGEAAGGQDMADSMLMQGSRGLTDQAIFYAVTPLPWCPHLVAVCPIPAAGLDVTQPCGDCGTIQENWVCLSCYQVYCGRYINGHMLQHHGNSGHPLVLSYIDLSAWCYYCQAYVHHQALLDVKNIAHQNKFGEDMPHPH
Kind of assay: In vitro HDAC inhibition assay (fluorogenic substrate), HDAC6. The format is biochemical. On the set-up: All three full-length rhHDACs were expressed in insect High5 cells using a baculoviral expression system; His6; GST; made in house; host or cells: insect High5 cells (baculovirus). The conditions noted are these: recombinant human HDAC6; mean ± SD of three independent determinations. The protocol: as §1

Assay [3] concerns the target T3, HDAC3 (Homo sapiens, UniProt O15379). The experiment in a line: In vitro HDAC inhibition assay (fluorogenic substrate), HDAC3. It is filed as biochemical. The arrangement: All three full-length rhHDACs were expressed in insect High5 cells using a baculoviral expression system; His6; GST; made in house; host or cells: insect High5 cells (baculovirus). The conditions noted are these: recombinant human HDAC3; mean ± SD of three independent determinations. The protocol: as §1
Target sequence in this assay (O15379 whole entry): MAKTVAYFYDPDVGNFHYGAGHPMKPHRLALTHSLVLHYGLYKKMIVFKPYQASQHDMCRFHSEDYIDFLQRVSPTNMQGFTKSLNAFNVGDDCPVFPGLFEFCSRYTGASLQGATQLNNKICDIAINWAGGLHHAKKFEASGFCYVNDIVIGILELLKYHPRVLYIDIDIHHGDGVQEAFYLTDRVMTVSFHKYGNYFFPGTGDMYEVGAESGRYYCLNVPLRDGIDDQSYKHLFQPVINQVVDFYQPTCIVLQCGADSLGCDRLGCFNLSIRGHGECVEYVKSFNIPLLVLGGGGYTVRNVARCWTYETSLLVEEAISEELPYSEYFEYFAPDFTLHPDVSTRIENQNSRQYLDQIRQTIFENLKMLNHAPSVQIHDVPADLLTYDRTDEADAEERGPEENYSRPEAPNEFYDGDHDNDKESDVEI
Target sequence in this assay (Q9Y618 395-489 partner limits assumed): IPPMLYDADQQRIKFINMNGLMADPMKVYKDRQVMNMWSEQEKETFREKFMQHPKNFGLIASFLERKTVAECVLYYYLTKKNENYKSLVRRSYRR

Assay [4] addresses T1, HDAC1. Kind of assay: Western blot of HDAC1 protein level (degradation) in MM.1S cells. It is filed as cell-based. The arrangement: endogenous in cells; host or cells: MM.1S. The conditions noted are these: 3 h, different concentrations. As for the experimental part: (§2) The 2 × 10^6 MM.1S cells (multiple myeloma) were cultured in a cell culture plate and incubated for 1 h. Next, the MM.1S cells were treated with compounds at different concentrations for 3 h. Subsequently, the cells were collected, washed, lysed in a Ripa buffer containing a sample reducing agent, and analyzed using SDS/PAGE. Finally, the gel was blotted and the total HDAC levels were detected through standard Western blot.

In assay [5] the target is T2, HDAC6. Kind of assay: Western blot of HDAC6 protein level (degradation) in MM.1S cells. The conditions noted are these: 3 h; for degradation of HDAC6 (immunoblot): different concentrations. On the set-up: endogenous in cells; host or cells: MM.1S. The format is cell-based. As for the experimental part:
as §2

Assay [6] deals with T3, HDAC3. Kind of assay: Western blot of HDAC3 protein level (degradation) in MM.1S cells. It is filed as cell-based. On the set-up: endogenous in cells; host or cells: MM.1S. The conditions noted are these: 3 h, different concentrations. The protocol:
as §2
Target sequence in this assay (O15379 whole entry): as the sequence (O15379 whole entry) above

Another assay deals with tubulin acetylation. Kind of assay: Tubulin acetylation in MM.1S cells. The format is cell-based.
The mark [7] stands for this setting: MM.1S, 72 h, MTS, mean ± SD of three independent determinations, read-out: IC50 (μM ± SD) anti-proliferative activity against MM.1S cell line.

Molecules are shown by their SMILES. Read-outs that look alike come from different tables or passages of the source. Bounds are passed on as bounds.

T1 sequence (Q13547 whole entry, the tested form may be a part, canonical isoform): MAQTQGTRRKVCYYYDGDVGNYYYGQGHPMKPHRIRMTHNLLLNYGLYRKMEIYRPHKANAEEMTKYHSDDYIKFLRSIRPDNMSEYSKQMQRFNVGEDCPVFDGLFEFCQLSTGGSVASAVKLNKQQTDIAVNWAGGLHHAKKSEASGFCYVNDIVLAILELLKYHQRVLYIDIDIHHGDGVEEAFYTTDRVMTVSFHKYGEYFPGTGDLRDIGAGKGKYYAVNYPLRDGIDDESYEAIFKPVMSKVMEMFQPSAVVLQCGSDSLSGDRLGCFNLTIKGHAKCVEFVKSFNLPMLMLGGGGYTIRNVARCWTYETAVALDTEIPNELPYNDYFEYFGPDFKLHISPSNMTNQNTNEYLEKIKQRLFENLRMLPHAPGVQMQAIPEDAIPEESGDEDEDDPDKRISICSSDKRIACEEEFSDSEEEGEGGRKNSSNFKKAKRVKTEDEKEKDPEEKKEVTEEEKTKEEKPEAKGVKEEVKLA

As to `O=C1CCC(N2Cc3c(OCc4ccc(C(=O)NO)cc4)cccc3C2=O)C(=O)N1` (stereo not drawn) [23a, 4-(((2-(2,6-Dioxopiperidin-3-yl)-1-oxoisoindolin-4-yl)oxy)methyl)-N-hydroxybenzamide], the IC50 at HDAC1 [1] was 8.32 ± 2.1 µM; in the assay on MM.1S cell line (setting [7]), > 10 µM; on HDAC6 [2] it was 0.38 ± 0.1 µM; at HDAC3 [3], 0.65 ± 0.03 µM.

As for `O=C(CCCCCCCC(=O)Nc1cccc2c1CN(C1CCC(=O)NC1=O)C2=O)NO` (stereo not drawn) [9c, N^1-(2-(2,6-Dioxopiperidin-3-yl)-1-oxoisoindolin-4-yl)-N^9-hydroxynonanediamide], the IC50 at HDAC1 [1] turned out to be 1.13 ± 0.03 µM; at HDAC6 [2], 3.67 ± 1.02 µM; on HDAC3 [3], 1.06 ± 0.2 µM.

Regarding `O=C(CCCCCCC(=O)Nc1cccc2c1CN(C1CCC(=O)NC1=O)C2=O)NO` (stereo not drawn) [9b, N^1-(2-(2,6-Dioxopiperidin-3-yl)-1-oxoisoindolin-4-yl)-N^8-hydroxyoctanediamide], the IC50 is 0.38 ± 0.14 µM at HDAC1 [1], > 10 µM in the assay on MM.1S cell line (setting [7]), 1.46 ± 1.02 µM on HDAC6 [2] and 0.47 ± 0.01 µM on HDAC3 [3].

As to `Nc1ccccc1NC(=O)c1ccc(COc2cccc3c2C(=O)N(C2CCC(=O)NC2=O)C3=O)cc1` (stereo not drawn) [21b, N-(2-Aminophenyl)-4-(((2-(2,6-dioxopiperidin-3-yl)-1,3-dioxoisoindolin-4-yl)oxy)methyl)benzamide], the half-inhibitory concentration (IC50) on HDAC1 [1] was 1.2 ± 0.44 µM; with MM.1S cell line (setting [7]), 0.541 ± 0.108 µM; at HDAC6 [2] it was > 20 µM; on HDAC3 [3], 0.28 ± 0.04 µM. In addition, the “degradation of HDAC1 (immunoblot)” value on HDAC1 [4] is listed as “almost no degradation”. The “degradation of HDAC6 (immunoblot)” value on HDAC6 [5] is reported as “almost no degradation”. Further, the “degradation of HDAC3 (immunoblot)” value on HDAC3 [6] was “almost no degradation”.

With `O=C(CCCCCNC(=O)Nc1cccc2c1C(=O)N(C1CCC(=O)NC1=O)C2=O)NO` (stereo not drawn) [15d, 6-(3-(2-(2,6-Dioxopiperidin-3-yl)-1,3-dioxoisoindolin-4-yl)ureido)-N-hydroxyhexanamide], the IC50 on HDAC1 [1] is 0.44 ± 0.1 µM; with MM.1S cell line (setting [7]), > 10 µM; on HDAC6 [2], 5.28 ± 1.42 µM; at HDAC3 [3], 0.22 ± 0.02 µM.

For `O=C1CCC(N2C(=O)c3cccc(OCc4ccc(C(=O)NO)cc4)c3C2=O)C(=O)N1` (stereo not drawn) [23b, 4-(((2-(2,6-Dioxopiperidin-3-yl)-1,3-dioxoisoindolin-4-yl)oxy)methyl)-N-hydroxybenzamide], the IC50 on HDAC1 [1] is 2.23 ± 0.3 µM; in the assay on MM.1S cell line (setting [7]), 1.34 ± 0.4 µM; on HDAC6 [2], > 20 µM; on HDAC3 [3] it was 0.76 ± 0.1 µM. Also, the “degradation of HDAC1 (immunoblot)” value on HDAC1 [4] is on record as “almost no degradation”. Besides, the “degradation of HDAC6 (immunoblot)” value at HDAC6 [5] was “almost no degradation”. At HDAC3 [6], the “degradation of HDAC3 (immunoblot)” value is “almost no degradation”.

For `O=C(CCCCCCC(=O)Nc1cccc2c1C(=O)N(C1CCC(=O)NC1=O)C2=O)NO` (stereo not drawn) [9e, N^1-(2-(2,6-Dioxopiperidin-3-yl)-1,3-dioxoisoindolin-4-yl)-N^8-hydroxyoctanediamide], the IC50 was 2.7 ± 0.36 µM at HDAC1 [1], > 10 µM in the assay on MM.1S cell line (setting [7]), 0.42 ± 0.18 µM at HDAC6 [2] and 0.33 ± 0.01 µM at HDAC3 [3].

In the case of `O=C(CCCCCNC(=O)Nc1cccc2c1CN(C1CCC(=O)NC1=O)C2=O)NO` (stereo not drawn) [15a, 6-(3-(2-(2,6-Dioxopiperidin-3-yl)-1-oxoisoindolin-4-yl)ureido)-N-hydroxyhexanamide], the results for the IC50 in the assay on MM.1S cell line (setting [7]), on HDAC6 [2] and at HDAC3 [3] were > 10 µM, 5.96 ± 1.43 µM and 0.27 ± 0.04 µM, respectively.

For the compound `O=C(CCCCCCCCNC(=O)Nc1cccc2c1CN(C1CCC(=O)NC1=O)C2=O)NO` (stereo not drawn) [15c, 9-(3-(2-(2,6-Dioxopiperidin-3-yl)-1-oxoisoindolin-4-yl)ureido)-N-hydroxynonanamide], the 50% inhibitory concentration (IC50) amounted to 0.82 ± 0.06 µM on HDAC1 [1], 3.09 ± 0.54 µM at HDAC6 [2] and 0.96 ± 0.13 µM on HDAC3 [3].

For `O=C(CCCCCC(=O)Nc1cccc2c1CN(C1CCC(=O)NC1=O)C2=O)NO` (stereo not drawn) [9a, N^1-(2-(2,6-Dioxopiperidin-3-yl)-1-oxoisoindolin-4-yl)-N^7-hydroxyheptanediamide], the IC50 on HDAC1 [1] worked out at 2.31 ± 0.46 µM; on HDAC6 [2] it was 1.98 ± 0.69 µM; at HDAC3 [3], 2.2 ± 0.29 µM.

Regarding `Nc1ccccc1NC(=O)c1ccc(COc2cccc3c2CN(C2CCC(=O)NC2=O)C3=O)cc1` (stereo not drawn) [21a, N-(2-Aminophenyl)-4-(((2-(2,6-dioxopiperidin-3-yl)-1-oxoisoindolin-4-yl)oxy)methyl)benzamide], the “increase in tubulin acetylation” value in the assay with tubulin acetylation is “not observed”. Moreover, the IC50 on HDAC1 [1] is 1.6 ± 0.54 µM; in the assay with MM.1S cell line (MM.1S cells, printed beside the HDAC6 immunoblot, read-out: IC50 printed in the picture of Figure 4B), 0.04 µM; in the assay with MM.1S cell line (setting [7]) it was 0.043 ± 0.02 µM; on HDAC6 [2], > 20 µM; at HDAC3 [3], 0.56 ± 0.02 µM. Also, the “anti-proliferative potency relative to SAHA” value in the assay on MM.1S cell line (MM.1S cell line) is “approximately five times more potent”. In addition, on HDAC6 [5] (0.12 μM), the “HDAC6 degradation compared with HDAC1 and HDAC3 (immunoblot)” value is on record as “superior HDAC6 degradation efficacies”. Besides, the “degradation of HDAC6 (immunoblot)” value on HDAC6 [5] is listed as “dose-dependent manner”.

On to `O=C(CCCCCCNC(=O)Nc1cccc2c1CN(C1CCC(=O)NC1=O)C2=O)NO` (stereo not drawn) [15b, 7-(3-(2-(2,6-Dioxopiperidin-3-yl)-1-oxoisoindolin-4-yl)ureido)-N-hydroxyheptanamide], for which the concentration for half-maximal inhibition (IC50) came to 0.57 ± 0.04 µM at HDAC1 [1], 1.67 ± 0.41 µM on HDAC6 [2] and 0.58 ± 0.04 µM on HDAC3 [3].

Regarding `O=C(CCCCCCCCC(=O)Nc1cccc2c1CN(C1CCC(=O)NC1=O)C2=O)NO` (stereo not drawn) [9d, N^1-(2-(2,6-Dioxopiperidin-3-yl)-1-oxoisoindolin-4-yl)-N^10-hydroxydecanediamide], the IC50 was 0.72 ± 0.18 µM on HDAC1 [1], 2.94 ± 0.62 µM on HDAC6 [2] and 0.75 ± 0.06 µM on HDAC3 [3].
